Experimental data published in BigSolDB 2.1.

CCOc1nc2cccc(C(=O)OC(C)OC(=O)OC3CCCCC3)c2n1Cc1ccc(-c2ccccc2-c2nn[nH]n2)cc1 (stereo not given)
solubility (mole fraction)
Conditions | 293.15 K | 298.15 K | 303.15 K | 308.15 K | 313.15 K | 323.15 K | 333.15 K | 343.15 K
in acetone | 0.00673 | 0.00783 | 0.00946 | 0.0111 | 0.0133 | – | – | –
in acetonitrile | 0.000582 | – | 0.000912 | – | 0.0016 | 0.00263 | 0.00441 | –
in ethanol | – | – | 0.00144 | – | 0.00235 | 0.00465 | 0.00824 | 0.0118
